Converted amounts (≈) assume the structure as drawn. Positions of bridges follow the written chain, without caps; N, C: chain ends. Non-standard residues stand in square brackets, D forms with d. Residues, ends and D or L forms follow the SMILES beside them. S5 = C=CCCC[C@](C)(N)C(=O)O; Dap = NC[C@H](N)C(=O)O
Assays:
P. aeruginosa = format: cell-based, Pseudomonas aeruginosa
Experimental: (§1) Antimicrobial Activity Assay: The following microbroth dilution protocol was adapted from CLSI to determine the minimum inhibitory concentration (MIC) of StAMPs. Briefly, Mueller-Hinton broth (MHB) or cation-adjusted Mueller-Hinton broth (MHB II) was prepared and autoclaved. Then, a colony of bacterial cells was picked and grown overnight in broth at 37° C. and then diluted and allowed to grow again for 3-4 hours. Serial dilutions of peptide stocks in water (10 μl) were prepared using clear round-bottom polypropylene 96-well plates. Then 90 μl of bacteria in broth was added to give a final inoculum of 5×10^5 CFU/ml. The plates were then covered with porous tape to reduce evaporation and incubated for 20-24 hours at 37° C. The MIC was the minimum peptide concentration at which no visible bacterial growth was observed.
(§2) Renal toxicity was measured after 90 minutes of incubation, while liver toxicity was measured after 48 hours of incubation with StAMPs. N/A=not tested. The following apply to all peptides (i.e., StAMPs) listed in Tables A-C: Crosslinks (X^1—X^2 and X^3—X^4): (alk); N-terminus: —NH2; C-terminus: amidated with —NH2; counterion: Cl^−. The following apply to all peptides (i.e., StAMPs) listed in Table D: Crosslinks (X^1—X^2 and X^3—X^4): (alk); N-terminus: —NH2; C-terminus: as shown in table; counterion: Cl^−.
StAMP Micelle Formulation: DSPE-MPEG(2000) was suspended in buffered saline at 50-100 mg/mL overnight. StAMP stock solutions at 5-20 mg/mL in buffered saline were prepared and equal volumes of micelle and StAMP stock solution were mixed at the desired StAMP:Lipid ratio. Suspensions were allowed to sit for 5-10 minutes at room temperature before being used in in vitro and in vivo assays. […]

A. baumannii = format: cell-based, Acinetobacter baumannii
Experimental: as §1, §2

K. pneumoniae = format: cell-based, Klebsiella pneumoniae
Experimental: as §1, §2

in vitro = format: cell-based; details: human, Inhibitory Concentration at 50% Cytotoxicity (IC50) Human Liver Cells (HepG2)
Experimental: Cell culture: RPTEC were maintained in MEM media supplemented with growth factors. HEPG2 cell line was maintained in Eagle's Minimum Essential Medium (EMEM) supplemented with fetal bovine serum to a final concentration of 10%.
48 hours cytotoxicity assay: Cells were plated in a 96-well format, and after 4 hour incubation to allow attachment, serial dilutions of StAMPs from a 5 mg/mL water stock, or vehicle, were then added to the cells in a final volume of 100 μl. After incubating at 37° C. for 48 hours, 100 μl of CellTiter-Glo® reagent was added to the cells, and the plates were incubated 10 minutes at room temperature. Luminescence was then measured on a microplate reader.
as §2

S. aureus = format: cell-based, Staphylococcus aureus
Experimental: as §1, §2

E. coli = format: cell-based, Escherichia coli
Experimental: as §1, §2

CC(C)[C@@H]1NC(=O)[C@@](C)(NC(=O)[C@H](C)NC(=O)[C@H](CCCCN)NC(=O)CNC(=O)[C@H](Cc2ccccc2)NC(=O)[C@H](CCCCN)NC(=O)[C@H](CCCCN)NC(=O)[C@H](CN)NC(=O)[C@H](CCCCN)NC(=O)[C@H](CN)NC(=O)[C@]2(C)CCCC=CCCC[C@](C)(NC(=O)CN)C(=O)NCC(=O)N[C@@H](CCCCN)C(=O)N[C@@H](Cc3ccccc3)C(=O)N2)CCCC=CCCC[C@@](C)(C(=O)N[C@@H](C)C(=O)N[C@@H](CCCCN)C(=O)N[C@@H](CCCCN)C(N)=O)NC(=O)[C@H](CCC(=O)O)NC(=O)CNC1=O [compound 82] (H-G[S5]GKF[S5][Dap]K[Dap]KKFGKA[S5]VGE[S5]AKK-NH2; staple 2-6, 16-20)
Minimum Inhibitory Concentration (MIC) P. aeruginosa (P. aeruginosa): 2 µg/mL | Minimum Inhibitory Concentration (MIC) A. baumannii (A. baumannii): 1 µg/mL | Minimum Inhibitory Concentration (MIC) K. pneumoniae (K. pneumoniae): 64 µg/mL | IC50 at 48 hours (in vitro): 190 µg/mL (≈ 76.6 µM) | Minimum Inhibitory Concentration (MIC) S. aureus (S. aureus): >64 µg/mL | Minimum Inhibitory Concentration (MIC) E. coli (E. coli): 4 µg/mL

CC(C)[C@@H]1NC(=O)[C@@](C)(NC(=O)[C@H](C)NC(=O)[C@H](CCCCN)NC(=O)CNC(=O)[C@H](Cc2ccccc2)NC(=O)[C@H](CCCCN)NC(=O)[C@H](CCCCN)NC(=O)[C@H](CCCCN)NC(=O)[C@H](CCCCN)NC(=O)[C@H](CCCCN)NC(=O)[C@]2(C)CCCC=CCCC[C@](C)(NC(=O)CN)C(=O)NCC(=O)N[C@@H](CCCCN)C(=O)N[C@@H](Cc3ccccc3)C(=O)N2)CCCC=CCCC[C@@](C)(C(=O)N[C@@H](C)C(=O)N[C@@H](CCCCN)C(=O)N[C@@H](CN)C(N)=O)NC(=O)[C@H](CCC(=O)O)NC(=O)CNC1=O [compound 52] (H-G[S5]GKF[S5]KKKKKFGKA[S5]VGE[S5]AK[Dap]-NH2; staple 2-6, 16-20)
Minimum Inhibitory Concentration (MIC) P. aeruginosa (P. aeruginosa): 4 µg/mL | Minimum Inhibitory Concentration (MIC) A. baumannii (A. baumannii): 2 µg/mL | Minimum Inhibitory Concentration (MIC) K. pneumoniae (K. pneumoniae): 8 µg/mL | Minimum Inhibitory Concentration (MIC) S. aureus (S. aureus): >64 µg/mL | Minimum Inhibitory Concentration (MIC) E. coli (E. coli): 2 µg/mL

CC(C)[C@@H]1NC(=O)[C@@](C)(NC(=O)[C@H](C)NC(=O)[C@H](CCCCN)NC(=O)CNC(=O)[C@H](Cc2ccccc2)NC(=O)[C@H](CN)NC(=O)[C@H](CCCCN)NC(=O)[C@H](CCCCN)NC(=O)[C@H](CCCCN)NC(=O)[C@H](CCCCN)NC(=O)[C@]2(C)CCCC=CCCC[C@](C)(NC(=O)CN)C(=O)NCC(=O)N[C@@H](CCCCN)C(=O)N[C@@H](Cc3ccccc3)C(=O)N2)CCCC=CCCC[C@@](C)(C(=O)N[C@@H](C)C(=O)N[C@@H](CCCCN)C(=O)N[C@@H](CCCCN)C(N)=O)NC(=O)[C@H](CCC(=O)O)NC(=O)CNC1=O [compound 49] (H-G[S5]GKF[S5]KKKK[Dap]FGKA[S5]VGE[S5]AKK-NH2; staple 2-6, 16-20)
Minimum Inhibitory Concentration (MIC) P. aeruginosa (P. aeruginosa): 8 µg/mL | Minimum Inhibitory Concentration (MIC) A. baumannii (A. baumannii): 2 µg/mL | Minimum Inhibitory Concentration (MIC) K. pneumoniae (K. pneumoniae): 8 µg/mL | Minimum Inhibitory Concentration (MIC) S. aureus (S. aureus): >64 µg/mL | Minimum Inhibitory Concentration (MIC) E. coli (E. coli): 4 µg/mL
